Data as given in ChEMBL document CHEMBL5360561, “Design, synthesis and biological evaluation of fluorinated selective estrogen receptor degraders (FSERDs) --- A promising strategy for advanced ER positive breast cancer” (Eur J Med Chem, 2023).
Calls of active or inactive are those of the source. The calls are words filed in the database; no cut-off is given here.

Tests used:
[1] = test system: Ishikawa; assay: Antiproliferative activity against human Ishikawa cells assessed as cell growth inhibition at 20 uM incubated for 3 days by MTT assay; assay type: functional; conditions: for inhibition at 20 µM: 72 h, time 3 day; for inhibition: time 3.0 day
[2] = test system: MCF7; assay: Induction of ER degradation in human MCF7 cells at 10 uM incubated for 24 hrs by Western blot analysis; assay type: cell-based
[3] = test system: MCF7; assay: Antiproliferative activity against human MCF7 cells assessed as cell growth inhibition incubated for 5 days by MTT assay; assay type: functional, cell-based; conditions: MCF7, 120 h
[4] = test system: MCF7; assay: Induction of cell cycle arrest in human MCF7 cells assessed as accumulation at G0/G1 phase at 10 uM incubated for 24 hrs by flow cytometry (Rvb= 46.53 +/- 0.44%); assay type: functional
[5] = test system: MCF7; assay: Antitumor activity against human MCF7 cells xenografted in nude mouse assessed as tumor growth inhibition at 10 mg/kg,po for 30 days; assay type: functional, organism-based; conditions: time 30.0 day
[6] = test system: MCF7; assay: Induction of ER degradation in Estradiol stimulated human MCF7 cells assessed as decrease in GREB1 mRNA expression level at 1 to 10 uM incubated for 24 hrs by RT-qPCR analysis; assay type: cell-based; conditions: dose 1-10 µM
[7] = Toxicity in Sprague-Dawley rat uterus assessed as change in uterine wet weight at 30 mg/kg, po for 2 days consecutively; assay type: organism-based; conditions: in vivo, 48 h, time 2 day
[8] = test system: Mus musculus; assay: In vivo ER degradation in mouse xenografted with human MCF7 cells assessed as reduction in ER expression level in tumor at 30 mg/kg,po for 30 days daily by […]; assay type: functional, organism-based; conditions: time 30.0 day
[9] = test system: MCF7; assay: Induction of ER degradation in Estradiol stimulated human MCF7 cells assessed as decrease in PGR gene expression level at 1 to 10 uM incubated for 24 hrs by RT-qPCR analysis; assay type: cell-based; conditions: dose 1-10 µM
[10] = test system: MCF7; assay: Induction of ER degradation in Estradiol stimulated human MCF7 cells assessed as decrease in TFF1 gene expression level at 1 to 10 uM incubated for 24 hrs by RT-qPCR analysis; assay type: cell-based; conditions: dose 1-10 µM
[11] = test system: MCF7; assay: Induction of ER degradation in human MCF7 cells at 0.001 to 10 uM incubated for 24 hrs by Western blot analysis; assay type: cell-based; conditions: dose 0.001-10 µM
[12] = test system: MCF7; assay: Induction of ER degradation in human MCF7 cells transfected with ERE-luciferase plasmid assessed as decrease in estradiol induced ERE-luciferase activity by measuring luminescence at 10 uM incubated for 24 hrs by luciferase assay; assay type: cell-based
[13] = Toxicity in mouse xenografted with human MCF7 cells assessed as morphological changes in heart at 30 mg/kg,po for 30 days daily by Hematoxylin and eosin staining based microscopy; assay type: organism-based; conditions: in vivo, 720 h, time 30 day
[14] = test system: MCF7; assay: Antitumor activity against human MCF7 cells xenografted in nude mouse assessed as reduction in Ki67 expression at 30 mg/kg,po for 30 days daily by immunohistochemical analysis; assay type: functional, organism-based; conditions: time 30.0 day
[15] = test system: Mus musculus; assay: In vivo ER degradation in mouse xenografted with human MCF7 cells assessed as reduction in PR expression level in tumor at 30 mg/kg,po for 30 days daily by […]; assay type: functional, organism-based; conditions: time 30.0 day
[16] = test system: MCF7; assay: Antitumor activity against human MCF7 cells xenografted in nude mouse assessed as tumor growth inhibition at 30 mg/kg,po for 30 days daily; assay type: functional, organism-based; conditions: time 30.0 day
[17] = Toxicity in mouse xenografted with human MCF7 cells assessed as body weight loss at 30 mg/kg,po for 30 days daily; assay type: organism-based; conditions: in vivo, 720 h, time 30 day
[18] = Toxicity in mouse xenografted with human MCF7 cells assessed as morphological changes in spleen at 30 mg/kg,po for 30 days daily by Hematoxylin and eosin staining based microscopy; assay type: organism-based; conditions: in vivo, 720 h, time 30 day
[19] = Toxicity in mouse xenografted with human MCF7 cells assessed as morphological changes in kidney at 30 mg/kg,po for 30 days daily by Hematoxylin and eosin staining based microscopy; assay type: organism-based; conditions: in vivo, 720 h, time 30 day
[20] = Toxicity in mouse xenografted with human MCF7 cells assessed as morphological changes in liver at 30 mg/kg,po for 30 days daily by Hematoxylin and eosin staining based microscopy; assay type: organism-based; conditions: in vivo, 720 h, time 30 day
[21] = test system: MCF7; assay: Induction of ER degradation in human MCF7 cells at 10 uM incubated for 24 hrs by DAPI staining based immunofluorescence analysis; assay type: cell-based
[22] = test system: MCF7; assay: Stabilization of ER in human MCF7 cells at 10 uM incubated for 24 hrs by Western blot analysis; assay type: cell-based
[23] = Plasma concentration in ICR mouse at 100 mg/kg, po and measured after 0.5 hrs by LC-MS analysis; assay type: ADME, organism-based
[24] = Plasma concentration in ICR mouse at 100 mg/kg, po and measured after 1 hrs by LC-MS analysis; assay type: ADME, organism-based
[25] = Plasma concentration in ICR mouse at 100 mg/kg, po and measured after 0.25 hrs by LC-MS analysis; assay type: ADME, organism-based
[26] = test system: MCF7; assay: Antiproliferative activity against human MCF7 cells assessed as reduction in cell viability; assay type: functional, cell-based

| Compound | inhibition at 20 µM [1] | Activity [2] | IC50 [3] | other results |
| --- | --- | --- | --- | --- |
| O=C(O)/C=C/c1ccc(Oc2c(C(=O)c3ccc(OC(F)(F)F)cc3)sc3cc(F)ccc23)cc1 | 18% | Active | 1.44 µM | – |
| C[C@]12CC[C@@H]3c4ccc(O)cc4C[C@@H](CCCCCCCCC[S+]([O-])CCCC(F)(F)C(F)(F)F)[C@H]3[C@@H]1CC[C@@H]2O (some centres not stated) [FULVESTRANT] | – | – | 0.0001 µM | inhibition [1]: inactive; Activity [4]: 62.28%; Activity [5]: Active |
| O=C(O)/C=C/c1ccc(Oc2c(C(=O)c3ccc4occc4c3)sc3cc(F)ccc23)cc1 | 12% | Active | 1.88 µM | – |
| O=C(O)/C=C/c1ccc(-c2ccc(Oc3c(C(=O)c4ccccc4)sc4cc(F)ccc34)cc2)cc1 | 8% | Active | 9.91 µM | – |
| O=C(O)/C=C/c1ccc(Oc2c(C(=O)c3ccccc3)sc3cc(F)ccc23)cc1F | – | Active | 1.53 µM | inhibition [1]: inactive |
| Cc1cc(Cl)cc(C)c1C(=O)c1sc2cc(F)ccc2c1Oc1ccc(/C=C/C(=O)O)cc1 | 6% | Active | 0.56 µM | – |
| Cc1ccc(C(=O)c2sc3cc(F)ccc3c2Oc2ccc(/C=C/C(=O)O)cc2)c(C)c1 | 13% | Active | 0.2 µM | Activity [6]: Active; Activity [7]: Non-Toxic; Activity [8]: Active; Activity [9]: Active; Activity [10]: Active; Activity [11]: Dose-Dependent Effect; Activity [12]: Active; Activity [13]: Non-Toxic; Activity [14]: Active; Activity [15]: Active; Activity [4]: 57.36%; Activity [16]: Active; Activity [17]: Non-Toxic; Activity [18]: Non-Toxic; Activity [19]: Non-Toxic; Activity [20]: Non-Toxic; Activity [21]: Active |
| Cc1cc(Oc2c(C(=O)c3ccccc3)sc3cc(F)ccc23)ccc1/C=C/C(=O)O | 19% | Active | 0.67 µM | – |
| Cc1cc(C)cc(C(=O)c2sc3cc(F)ccc3c2Oc2ccc(/C=C/C(=O)O)cc2)c1 | – | Active | 2.59 µM | inhibition [1]: inactive |
| CC/C(=C(\c1ccccc1)c1ccc(OCCN(C)C)cc1)c1ccccc1 [TAMOXIFEN] | 50% | – | 2.33 µM | Activity [7]: Toxic; Activity [4]: 67.34%; Activity [16]: Active; Activity [22]: Active |
| Cc1cc(F)ccc1C(=O)c1sc2cc(F)ccc2c1Oc1ccc(/C=C/C(=O)O)cc1 | 11% | Active | 0.36 µM | – |
| O=C(O)/C=C/c1ccc(Oc2c(C(=O)c3cccc4ccccc34)sc3cc(F)ccc23)cc1 | 8% | Active | 8.57 µM | – |
| Cc1cc(F)cc(C)c1C(=O)c1sc2cc(O)ccc2c1Oc1ccc(/C=C/C(=O)O)cc1 [RINTODESTRANT] | – | – | – | concentration at 0.5 h [23]: 4500 ng/mL |
| Cc1cc(/C=C/C(=O)O)ccc1Oc1c(C(=O)c2ccccc2)sc2cc(F)ccc12 | 6% | Active | 3.79 µM | – |
| O=C(O)/C=C/c1ccc(Oc2c(C(=O)c3ccccc3)sc3cc(F)ccc23)cc1 | 8% | Active | 2.12 µM | concentration at 1 h [24]: 15600 ng/mL; concentration at 0.25 h [25]: 9860 ng/mL; concentration at 0.5 h [23]: 16000 ng/mL |
| COc1ccc(C(=O)c2sc3cc(F)ccc3c2Oc2ccc(/C=C/C(=O)O)cc2)cc1 | 53% | Active | 0.34 µM | – |
| CCc1ccccc1C(=O)c1sc2cc(F)ccc2c1Oc1ccc(/C=C/C(=O)O)cc1 | 12% | Active | 0.37 µM | – |
| CC(C)c1ccccc1C(=O)c1sc2cc(F)ccc2c1Oc1ccc(/C=C/C(=O)O)cc1 | – | Active | 0.32 µM | inhibition [1]: inactive |
| CCNCCc1ccc(CN(CC)c2cc(OC)ccc2[C@@H]2CCc3cc(O)ccc3C2)cc1 [ELACESTRANT] | – | – | – | IC50 [26]: 4.2 µM |
| O=C(O)/C=C/c1ccc(Oc2c(C(=O)c3ccc4ccncc4c3)sc3cc(F)ccc23)cc1 | 36% | Active | > 20 µM | – |
| O=C(O)/C=C/c1ccc(Oc2c(C(=O)c3cccc(F)c3)sc3cc(F)ccc23)cc1 | 9% | Active | 5.83 µM | – |
| O=C(O)/C=C/c1ccc(Oc2c(C(=O)c3cccc4sccc34)sc3cc(F)ccc23)cc1 | 12% | Active | 4.28 µM | – |
| Cc1cccc(C)c1C(=O)c1sc2cc(F)ccc2c1Oc1ccc(/C=C/C(=O)O)cc1 | – | Active | 0.28 µM | inhibition [1]: inactive |
| O=C(O)/C=C/c1ccc(Oc2c(C(=O)c3ccc4ccccc4c3)sc3cc(F)ccc23)cc1 | 25% | Active | 4.74 µM | – |
